Measured values: US12691096B2, “Drug-controlled systems and uses thereof” (TRUSTEES OF BOSTON UNIVERSITY, priority 2020, dated 2026)

Key:
dNS3 [1] = target: T1, dNS3 (Hepatitis C virus genotype 1b, UniProt P26663, A1092G/F1173S/K1113A/P1112Q/S1165A); format: cell-based, hepatitis C virus (HCV); conditions: dNS3-NLuc and CLuc-PMED; HEK293FT lysates; drug added at time of transfection, 48 hours
T1 construct: expressed in transfected cells; host or cells: HEK293FT (read in lysate)
Experimental: To test this, permutations of dNS3, NS3wT and each peptide variant were fused to split fragments of Renilla luciferase (FIG. 2A).
(§1) Luciferase assay. HEK293FT cells were transfected with split luciferase constructs. In the case of drug pretreatment for dose curve experiments, drug was added at the indicated concentration at the time of transfection. Two days later, the transfected cells were lysed with 1× Ex Luciferase Assay Buffer using the Nano-Glo® Dual-Luciferase® Reporter Assay System (Promega). Immediately after, the samples were treated with an additional volume of 1× Ex Luciferase Assay Buffer with the indicated concentration of drug.
(§2) The samples were then read with a plate reader once per minute measuring luminescence with 500 millisecond exposure time. […] For kinetics analysis, linear regression analysis was performed on the untreated samples and used to normalize the data for the treated samples.

wild-type NS3 = wild-type NS3 (Hepatitis C virus genotype 1b, UniProt P26663, A1092G/F1173S/K1113A/P1112Q); format: cell-based, hepatitis C virus (HCV); conditions: NS3WT-NLuc and CLuc-PMED; compared with dNS3
Experimental: as §1, §2

dNS3 [2] = target: T1, dNS3; format: biochemical, hepatitis C virus (HCV); conditions: saturating drug concentrations; 3 pM of each drug added at time of lysis
Experimental: as §1, §2

dNS3-Cre-PHI = dNS3-Cre-PHI (Hepatitis C virus genotype 1b, UniProt P26663, A1092G/F1173S/K1113A/P1112Q/S1165A); conditions: catalytic NS3 S139A mutation (dNS3)
Source text: (§3) For Cre recombinase control in mammalian cells, live cells were gated in the same manner as above and gated for transfection by either a co-transfection marker of pmiRFP670-N1 or inter-plasmatic constitutive expression of iRFP670 under a separate constitutive promoter. Cells were further deemed as GFP positive if their fluorescence intensity was greater than or equal to the top 1% of non-transfected cells. Baseline activation of GFP positive cells was then subtracted using transfection marker only cells as baseline for all measurements.

[3] = target: NS3(TI) with S139A mutation (Hepatitis C virus genotype 1b, UniProt P26663, D1194Y/F1069L/Q1106K/S1148R/S1165A); format: cell-based, hepatitis C virus (HCV); conditions: among the three drugs tested (grazoprevir, asunaprevir, telaprevir)
Source text: (§4) To accomplish this, it was sought to make orthogonal inducible Cre recombinases.
as §3

[4] = target: telaprevir inducible (TI) NS3 (Hepatitis C virus genotype 1b, UniProt P26663, D1194Y/F1069L/Q1106K/S1148R); format: cell-based, hepatitis C virus (HCV); conditions: telaprevir (10 pM); flow cytometry 48 hours post-drug addition
Source text: as §4, §3

T1 sequence (P26663 1027-1206 A1092G/P1112Q/K1113A/S1165A/F1173S): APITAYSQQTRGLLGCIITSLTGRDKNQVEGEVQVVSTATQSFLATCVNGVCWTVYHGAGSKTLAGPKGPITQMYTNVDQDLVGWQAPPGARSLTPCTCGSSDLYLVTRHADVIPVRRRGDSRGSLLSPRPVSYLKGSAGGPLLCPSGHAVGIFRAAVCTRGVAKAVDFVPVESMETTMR
Chain of NS3(TI) with S139A mutation (P26663 1027-1206 F1069L/A1092G/Q1106K/P1112Q/K1113A/S1148R/S1165A/F1173S/D1194Y): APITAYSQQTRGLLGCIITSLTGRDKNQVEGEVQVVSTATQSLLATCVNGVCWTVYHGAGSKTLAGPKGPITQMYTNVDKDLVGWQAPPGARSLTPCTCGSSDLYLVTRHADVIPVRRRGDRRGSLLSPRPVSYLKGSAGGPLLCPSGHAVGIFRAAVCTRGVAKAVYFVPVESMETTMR
Chain of dNS3-Cre-PHI (P26663 1027-1206 A1092G/P1112Q/K1113A/S1165A/F1173S): as the sequence (P26663 1027-1206 A1092G/P1112Q/K1113A/S1165A/F1173S) above
Chain of wild-type NS3 (P26663 1027-1206 A1092G/P1112Q/K1113A/F1173S): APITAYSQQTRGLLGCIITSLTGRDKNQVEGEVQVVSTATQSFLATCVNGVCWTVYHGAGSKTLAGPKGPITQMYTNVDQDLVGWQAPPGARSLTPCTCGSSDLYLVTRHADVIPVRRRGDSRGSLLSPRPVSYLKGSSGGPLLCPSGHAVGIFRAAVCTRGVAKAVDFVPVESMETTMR
Chain of telaprevir inducible (TI) NS3 (P26663 1027-1206 F1069L/A1092G/Q1106K/P1112Q/K1113A/S1148R/F1173S/D1194Y): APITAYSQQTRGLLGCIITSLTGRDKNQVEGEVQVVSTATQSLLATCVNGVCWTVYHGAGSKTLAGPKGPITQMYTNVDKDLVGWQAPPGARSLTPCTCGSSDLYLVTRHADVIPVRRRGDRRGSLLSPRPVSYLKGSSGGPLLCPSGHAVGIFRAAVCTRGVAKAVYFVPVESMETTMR

| SMILES | Luciferase activity, dose response (dNS3 [1]) | Luciferase activity, dose response with wild-type NS3 (wild-type NS3) | Dissociation of dNS3-PMED complexes (temporal turn-off) (dNS3 [2]) | Effect of NS3 S139A mutation alone on drug induction of Cre (dNS3-Cre-PHI) | Drug sensitivity of NS3(TI) Cre with NS3 S139A mutation [3] | Induction of Cre recombination, telaprevir inducible (TI) construct [4] |
| --- | --- | --- | --- | --- | --- | --- |
| CCC[C@H](NC(=O)[C@@H]1[C@H]2CCC[C@H]2CN1C(=O)[C@@H](NC(=O)[C@@H](NC(=O)c1cnccn1)C1CCCCC1)C(C)(C)C)C(=O)C(=O)NC1CC1 [telaprevir] | significant resistance | effect is reverted | did not dissociate dNS3-PMD complexes well | reduce telaprevir sensitivity | ablates telaprevir sensitivity | strongly induced |
| CC(C)(C)OC(=O)N[C@H]1CCCCC/C=C\[C@@H]2C[C@@]2(C(=O)NS(=O)(=O)C2CC2)NC(=O)[C@@H]2C[C@@H](OC(=O)N3Cc4cccc(F)c4C3)CN2C1=O [danoprevir, Danoprevir] | inhibit luciferase activity in a dose dependent manner |  |  |  |  |  |
